In ChEMBL document CHEMBL1158615, “Synthesis and biological evaluation of bicyclo[3.3.0] octane derivatives as dipeptidyl peptidase 4 inhibitors for the treatment of type 2 diabetes” (Bioorg Med Chem Lett, 2010):
pIC50: −log10 of the molar value. Activity calls are given as the source filed them. No cut-off for these calls is given here.

Experiments:
Dipeptidyl peptidase 4 = Dipeptidyl peptidase 4 (Homo sapiens, UniProt P27487)
Description: Inhibition of DPP4 by chemical luminescent assay

Mus musculus = test: Antidiabetic activity in ICR mouse assessed as deduction of glucose excursion at 0.3 to 10 mg/kg, po administered 30 mins before oral glucose challenge measured up to 120 mins by oral glucose tolerance test; assay type: functional, organism-based

Chain of Dipeptidyl peptidase 4 (P27487 whole entry): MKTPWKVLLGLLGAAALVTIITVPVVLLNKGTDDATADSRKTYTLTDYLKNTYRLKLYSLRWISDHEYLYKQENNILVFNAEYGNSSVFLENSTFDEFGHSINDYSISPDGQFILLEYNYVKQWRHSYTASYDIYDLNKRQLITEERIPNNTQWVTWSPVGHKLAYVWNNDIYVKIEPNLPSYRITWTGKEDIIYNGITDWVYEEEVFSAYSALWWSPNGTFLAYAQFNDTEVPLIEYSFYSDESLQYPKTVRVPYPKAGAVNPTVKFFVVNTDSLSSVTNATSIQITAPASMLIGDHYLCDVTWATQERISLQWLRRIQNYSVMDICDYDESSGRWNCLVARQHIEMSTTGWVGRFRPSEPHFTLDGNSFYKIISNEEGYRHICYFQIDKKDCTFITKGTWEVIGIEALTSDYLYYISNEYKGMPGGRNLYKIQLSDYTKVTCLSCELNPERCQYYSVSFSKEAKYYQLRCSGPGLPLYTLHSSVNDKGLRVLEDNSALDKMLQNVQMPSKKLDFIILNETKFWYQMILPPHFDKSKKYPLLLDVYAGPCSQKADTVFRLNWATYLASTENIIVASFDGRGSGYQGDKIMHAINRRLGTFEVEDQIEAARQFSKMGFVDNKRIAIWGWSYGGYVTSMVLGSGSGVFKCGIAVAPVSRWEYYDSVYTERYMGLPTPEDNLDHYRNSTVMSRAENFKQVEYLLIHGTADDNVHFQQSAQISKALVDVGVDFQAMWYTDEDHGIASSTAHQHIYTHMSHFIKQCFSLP

For `N#C[C@@H]1CCCN1C(=O)CN[C@@H]1C[C@@H]2C[C@H](OC(=O)Nc3ccccc3)C[C@@H]2C1`, the pIC50 (Dipeptidyl peptidase 4) was 6.92.

Work on `CC(C)NC(=O)O[C@H]1C[C@H]2C[C@@H](NCC(=O)N3CCC[C@H]3C#N)C[C@H]2C1` yielded a pIC50 (Dipeptidyl peptidase 4) of 6.69.

`CC(C)(C)NC(=O)O[C@H]1C[C@H]2C[C@@H](NCC(=O)N3CCC[C@H]3C#N)C[C@H]2C1` gave a pIC50 (Dipeptidyl peptidase 4) of 6.49.

`CO[C@H]1C[C@H]2C[C@@H](NCC(=O)N3CCC[C@H]3C#N)C[C@H]2C1` was tested, and the Activity (Mus musculus) was “Active”.

For `N#C[C@@H]1CCCN1C(=O)CN[C@H]1C[C@H]2C[C@@H](O)C[C@H]2C1`, the Activity (Mus musculus) was “Active”.
